The values below come from patent US5663331A, “Cephalosporin compounds” (Il-Dong Pharm. Co., Ltd., priority 1992, dated 1997).

Molecules are shown by their SMILES. In brackets after ≈: the same amount, converted by molar mass.

What all share (assay type): cell-based
The subject of experiment [1] is Pseudomonas aeurginosa NCTC 10490. The experiment in a line: MIC, two-fold dilution method, Pseudomonas aeurginosa NCTC 10490. Particulars: 10^6 CFU per ml, 37° C., 18 to 20 hours; for MIC: NCTC10490, Muller Hinton Broth, read-out: Antibacterial Activity (MIC); for Antibacterial Activity (MIC): Muller Hinton Broth. Here is the method:
(§1) In order to illustrate the usefulness of the invented compounds, the minimal inhibitory concentrations-(MIC) thereof against standard strains were determined and compared with Cefotaxime, a known compound. Also, the in vitro antibacterial activity was determined by a two-fold dilution method as described below: That is, the two-fold serial dilutions of the compound were made and dispersed in Muller Hinton Broth medium. Standard test strain which had the 10^6 CFU per ml was inoculated on the medium, and was incubated at 37° C. for 18 to 20 hours.

In experiment [2] the test system is Esherichia coli ATCC 25922. The experiment in a line: MIC, two-fold dilution method, Esherichia coli ATCC 25922. Particulars: Muller Hinton Broth, 10^6 CFU per ml, 37° C., 18 to 20 hours; for MIC: read-out: Antibacterial Activity (MIC). Here is the method:
as §1

The test system of experiment [3] is Bacillus subtilis ATCC 6633. The experiment is described as follows: MIC, two-fold dilution method, Bacillus subtilis ATCC 6633. The following applies: 10^6 CFU per ml, 37° C., 18 to 20 hours; for MIC: ATCC6633, Muller Hinton Broth, read-out: Antibacterial Activity (MIC); for Antibacterial Activity (MIC): Muller Hinton Broth. As for the experimental part:
as §1

Experiment [4] concerns Streptococcus faecalis ATCC 10541. The experiment in a line: MIC, two-fold dilution method, Streptococcus faecalis ATCC 10541. Particulars: 10^6 CFU per ml, 37° C., 18 to 20 hours; for MIC: Enterococcus faecalis, ATCC10541, Muller Hinton Broth, read-out: Antibacterial Activity (MIC); for Antibacterial Activity (MIC): Muller Hinton Broth. Here is the method:
as §1

The test system of experiment [5] is Staphylococcus epidermidis ATCC 12228. The experiment in a line: MIC, two-fold dilution method, Staphylococcus epidermidis ATCC 12228. Particulars: 10^6 CFU per ml, 37° C., 18 to 20 hours; for MIC: ATCC12228, Muller Hinton Broth, read-out: Antibacterial Activity (MIC); for Antibacterial Activity (MIC): Muller Hinton Broth. Here is the method: as §1
Experiment [6] deals with Staphylococcus aureus ATCC 65389. The experiment is described as follows: MIC, two-fold dilution method, Staphylococcus aureus ATCC 65389. Particulars: 10^6 CFU per ml, 37° C., 18 to 20 hours; for MIC: ATCC65389, Muller Hinton Broth, read-out: Antibacterial Activity (MIC); for Antibacterial Activity (MIC): Muller Hinton Broth. As for the experimental part: as §1
In experiment [7] the test system is Klebsiella pneumoniae ATCC 10031. The experiment in a line: MIC, two-fold dilution method, Klebsiella pneumoniae ATCC 10031. The following applies: 10^6 CFU per ml, 37° C., 18 to 20 hours; for MIC: ATCC10031, Muller Hinton Broth, read-out: Antibacterial Activity (MIC); for Antibacterial Activity (MIC): Muller Hinton Broth. As for the experimental part: as §1

For orientation: MIC means the least concentration at which growth counts as inhibited. In the case of `CN1CCN(c2cc3c(cc2F)c(SCC2=C(C(=O)[O-])N4C(=O)C(NC(=O)/C(=N\OC(C)(C)C(=O)O)c5csc(N)n5)C4SC2)cc[n+]3C)CC1` (stereo not drawn) [Compound I-54, 7-[(Z)-2-(2-aminothiazol-4-yl)-2-(2-carboxyprop-2-oxyimino)acetamido]-3-[1-methyl-6-fluoro-7-(N-methylpiperazinyl)quinolinium-4-yl]thiomethyl-3-cephem-4-carboxylate], the minimal inhibitory concentration (MIC) in experiment [1] stood at 3.13 µg/mL (≈ 4.12 µM); in experiment [2], 6.25 µg/mL (≈ 8.24 µM); in experiment [3] it was 0.78 µg/mL (≈ 1.03 µM); in experiment [4] it was 1.56 µg/mL (≈ 2.06 µM); in experiment [5], 3.13 µg/mL (≈ 4.12 µM); in experiment [6], 6.25 µg/mL (≈ 8.24 µM). Moreover, in experiment [7], the MIC stood at 3.13 µg/mL (≈ 4.12 µM).

`CO/N=C(\C(=O)NC1C(=O)N2C(C(=O)[O-])=C(CSc3cc[n+](C)c4cc(N5CCNCC5)c(F)cc34)CSC12)c1csc(N)n1` (stereo not drawn) [Compound I-1, 7-[(Z)-2-(2-aminothiazol-4-yl)-2-(methoxyimino)acetamide]-3-(1-methyl-6-fluoro-7-piperazinylquinolinium-4-yl)thiomethyl-3-cephem-4-carboxylate]: the MIC in experiment [1] came to 1.56 µg/mL (≈ 2.32 µM); in experiment [2], 0.78 µg/mL (≈ 1.16 µM); in experiment [3] it was 0.2 µg/mL (≈ 0.297 µM); in experiment [4] it was 0.05 µg/mL (≈ 0.0743 µM); in experiment [5], 0.1 µg/mL (≈ 0.149 µM); in experiment [6], 0.2 µg/mL (≈ 0.297 µM). Moreover, the MIC in experiment [7] is 0.2 µg/mL (≈ 0.297 µM).

In the case of `C=CC[n+]1ccc(SCC2=C(C(=O)[O-])N3C(=O)C(NC(=O)/C(=N\OC)c4csc(N)n4)[C@H]3SC2)c2cc(F)c(N3CCNCC3)cc21` (stereo partly drawn) [Compound I-13, 7-[(Z)-2-(2-aminothiazol-4-yl)-2-(methoxyimino)acetamido]-3-(1-allyl-6-fluoro-7-piperazinylquinolinium-4-yl)thiomethyl-3-cephem-4-carboxylate], the minimum inhibitory concentration (MIC) was found to be 1.56 µg/mL (≈ 2.23 µM) in experiment [1]; 3.13 µg/mL (≈ 4.48 µM) in experiment [2]; 0.39 µg/mL (≈ 0.558 µM) in experiment [3]; 0.78 µg/mL (≈ 1.12 µM) in experiment [4]; 1.56 µg/mL (≈ 2.23 µM) in experiment [5]; 1.56 µg/mL (≈ 2.23 µM) in experiment [6]. Further, the MIC in experiment [7] amounted to 0.78 µg/mL (≈ 1.12 µM).

Take `C=CCO/N=C(\C(=O)NC1C(=O)N2C(C(=O)[O-])=C(CSc3cc[n+](CC)c4cc(N5CCN(C)CC5)c(F)cc34)CSC12)c1csc(N)n1` (stereo not drawn) [Compound I-30, 7-[(Z)-2-(2-aminothiazol-4-yl)-2-(allyloxyimino)acetamido]-3-[1-ethyl-6-fluoro-7-(N-methylpiperazinyl)quinolinium-4-yl]thiomethyl-3-cephem-4-carboxylate]: the minimum inhibitory concentration (MIC) in experiment [1] stood at 6.25 µg/mL (≈ 8.6 µM); in experiment [2], 3.13 µg/mL (≈ 4.31 µM); in experiment [3], 0.39 µg/mL (≈ 0.537 µM); in experiment [4], 0.39 µg/mL (≈ 0.537 µM); in experiment [5], 0.78 µg/mL (≈ 1.07 µM); in experiment [6] it was 1.56 µg/mL (≈ 2.15 µM). In experiment [7], the MIC amounted to 0.78 µg/mL (≈ 1.07 µM).

Turning to `CCN1CCN(c2cc3c(cc2F)c(SCC2=C(C(=O)[O-])N4C(=O)C(NC(=O)/C(=N\OC(C)(C)C(=O)O)c5csc(N)n5)C4SC2)cc[n+]3C2CC2)CC1` (stereo not drawn) [Compound I-59, 7-[(Z)-2-(2-aminothiazol-4-yl)-2-(2-carboxyprop-2-oxyimino)acetamido]-3-[1-cyclopropyl-6-fluoro-7-(1-ethylpiperazinyl)quinolinium-4-yl]thiomethyl-3-cephem-4-carboxylate], the MIC in experiment [1] came out at 0.78 µg/mL (≈ 0.976 µM); in experiment [2], 0.78 µg/mL (≈ 0.976 µM); in experiment [3], 0.39 µg/mL (≈ 0.488 µM); in experiment [4], 0.78 µg/mL (≈ 0.976 µM); in experiment [5], 1.56 µg/mL (≈ 1.95 µM); in experiment [6], 0.78 µg/mL (≈ 0.976 µM). Also, in experiment [7], the minimal inhibitory concentration (MIC) was determined as 0.39 µg/mL (≈ 0.488 µM).

For `C#CCO/N=C(\C(=O)NC1C(=O)N2C(C(=O)[O-])=C(CSc3cc[n+](C4CC4)c4cc(N5CCNCC5)c(F)cc34)CS[C@H]12)c1csc(N)n1` (stereo partly drawn) [Compound I-41, 7-[(Z)-2-(2-aminothiazol-4-yl)-2-(propargyloxyimino)acetamido]-3-(1-cyclopropyl-6-fluoro-7-piperazinylquinolinium-4-yl)thiomethyl-3-cephem-4-carboxylate], the MIC in experiment [1] amounted to 3.13 µg/mL (≈ 4.33 µM); in experiment [2], 3.13 µg/mL (≈ 4.33 µM); in experiment [3] it was 0.2 µg/mL (≈ 0.277 µM); in experiment [4], 0.39 µg/mL (≈ 0.54 µM); in experiment [5], 0.78 µg/mL (≈ 1.08 µM); in experiment [6] it was 0.78 µg/mL (≈ 1.08 µM). The MIC in experiment [7] was 6.25 µg/mL (≈ 8.65 µM).

Take `CO/N=C(\C(=O)NC1C(=O)N2C(C(=O)[O-])=C(CSc3cc[n+](C)c4cc(N5CCNCC5C)c(F)cc34)CSC12)c1csc(N)n1` (stereo not drawn) [Compound I-4, 7-[(Z)-2-(2-aminothiazol-4-yl)-2-(methoxyimino)acetamido]-3-(1-methyl-6-fluoro-7-(2-methyl)piperazinylquinolinium-4-yl]thiomethyl-3-cephem-4-carboxylate]: the “Antibacterial Activity (MIC)” value in experiment [1] turned out to be 0.78 µg/mL; in experiment [2], 0.78 µg/mL; in experiment [3], 0.1 µg/mL; in experiment [4], 0.05 µg/mL; in experiment [5], 0.2 µg/mL; in experiment [6] it was 0.1 µg/mL. The “Antibacterial Activity (MIC)” value in experiment [7] turned out to be 0.1 µg/mL.

On to `Cc1cn(-c2cc3c(cc2F)c(SCC2=C(C(=O)[O-])N4C(=O)C(NC(=O)/C(=N\OC(C)(C)C(=O)O)c5csc(N)n5)[C@H]4SC2)cc[n+]3C2CC2)cn1` (stereo partly drawn) [Compound I-68, 7-[(Z)-2-(2-aminothiazol-4-yl)-2-(2-carboxyprop-2-oxyimino)acetamido]-3-[1-cyclopropyl-6-fluoro-7-(4-methylimidazolyl)quinolinium-4-yl]thiomethyl-3-cephem-4-carboxylate], for which the “Antibacterial Activity (MIC)” value was found to be 0.78 µg/mL in experiment [1]; 1.56 µg/mL in experiment [2]; 0.78 µg/mL in experiment [3]; 0.2 µg/mL in experiment [4]; 1.56 µg/mL in experiment [5]; 1.56 µg/mL in experiment [6]. Moreover, in experiment [7], the “Antibacterial Activity (MIC)” value came out at 0.78 µg/mL.

As for `C#CCO/N=C(\C(=O)NC1C(=O)N2C(C(=O)[O-])=C(CSc3cc[n+](CC)c4cc(N5CCN(C)CC5)c(F)cc34)CSC12)c1csc(N)n1` (stereo not drawn) [Compound I-46, 7-[(Z)-2-(2-aminothiazol-4-yl)-2-(propargyloxyimino)acetamido]-3-[1-ethyl-6-fluoro-7-(N-methylpiperazinyl)quinolinium-4-yl]thiomethyl-3-cephem-4-carboxylate], the MIC in experiment [1] was 6.25 µg/mL (≈ 8.62 µM); in experiment [2], 12.5 µg/mL (≈ 17.2 µM); in experiment [3] it was 0.78 µg/mL (≈ 1.08 µM); in experiment [4], 0.2 µg/mL (≈ 0.276 µM); in experiment [5], 0.39 µg/mL (≈ 0.538 µM); in experiment [6] it was 0.78 µg/mL (≈ 1.08 µM). Moreover, the MIC in experiment [7] came to 6.25 µg/mL (≈ 8.62 µM).

`CC[n+]1ccc(SCC2=C(C(=O)[O-])N3C(=O)C(NC(=O)/C(=N\OC)c4csc(N)n4)C3SC2)c2cc(F)c(N3CCN(C)CC3)cc21` (stereo not drawn) [Compound I-10, 7-[(Z)-2-(2-aminothiazol-4-yl)-2-(methoxyimino)acetamido]-3-(1-ethyl-6-fluoro-7-(N-methylpiperazinyl)quinolinium-4-yl]thiomethyl-3-cephem-4-carboxylate]: the minimum inhibitory concentration (MIC) in experiment [1] was 6.25 µg/mL (≈ 8.92 µM); in experiment [2], 12.5 µg/mL (≈ 17.8 µM); in experiment [3] it was 0.39 µg/mL (≈ 0.556 µM); in experiment [4] it was 1.56 µg/mL (≈ 2.23 µM); in experiment [5], 1.56 µg/mL (≈ 2.23 µM); in experiment [6] it was 0.39 µg/mL (≈ 0.556 µM). The minimum inhibitory concentration (MIC) in experiment [7] was determined as 0.78 µg/mL (≈ 1.11 µM).

As to `CC1CNCCN1c1cc2c(cc1F)c(SCC1=C(C(=O)[O-])N3C(=O)C(NC(=O)/C(=N\OC(C)(C)C(=O)O)c4csc(N)n4)[C@H]3SC1)cc[n+]2C` (stereo partly drawn) [Compound I-56, 7-[(Z)-2-(2-aminothiazol-4-yl)-2-(2-carboxyprop-2-oxyimino)acetamido]-3-[1-methyl-6-fluoro-7-(2-methylpiperazinyl)quinolinium-4-yl]thiomethyl-3-cephem-4-carboxylate], the “Antibacterial Activity (MIC)” value was determined as 0.78 µg/mL in experiment [1]; 0.39 µg/mL in experiment [2]; 0.2 µg/mL in experiment [3]; 0.39 µg/mL in experiment [4]; 0.78 µg/mL in experiment [5]; 0.78 µg/mL in experiment [6]. Moreover, the “Antibacterial Activity (MIC)” value in experiment [7] was 0.39 µg/mL.

Turning to `C=CCO/N=C(\C(=O)NC1C(=O)N2C(C(=O)[O-])=C(CSc3cc[n+](CC=C)c4cc(N5CCN(CC)CC5)c(F)cc34)CSC12)c1csc(N)n1` (stereo not drawn) [Compound I-35, 7-[(Z)-2-(2-aminothiazol-4-yl)-2-(allyloxyimino)acetamido]-3-[1-allyl-6-fluoro-7-(1-ethylpiperazinyl)quinolinium-4-yl]thiomethyl-3-cephem-4-carboxylate], the MIC in experiment [1] worked out at 0.78 µg/mL (≈ 1.04 µM); in experiment [2] it was 1.56 µg/mL (≈ 2.07 µM); in experiment [3] it was 0.39 µg/mL (≈ 0.518 µM); in experiment [4], 0.39 µg/mL (≈ 0.518 µM); in experiment [5], 0.78 µg/mL (≈ 1.04 µM); in experiment [6] it was 0.78 µg/mL (≈ 1.04 µM). Moreover, in experiment [7], the MIC was determined as 0.78 µg/mL (≈ 1.04 µM).
